Results as given in article PMC8781304, “Arene-Ruthenium(II) Complexes with Carbothiamidopyrazoles as a Potential Alternative for Antibiotic Resistance in Human” (Molecules, 2022).
Like-named read-outs stand apart in the source and are kept apart here.

Experiments:
S. aureus ATCC 29213 [1] = assay: Time-kill test; type: cell-based, Staphylococcus aureus; details: 1 × MIC
Procedure: (§1) The time-kill experiments were performed as described previously. Briefly, inocula were prepared in TSB medium (TSB; […] BTL Sp. z o.o., Łódź, Poland). All samples were incubated at 35 °C and 80 rpm for varied time intervals (2, 4, 6, 12, 18, 24, 48h). The percentage of dead cells was calculated according to the growth control by determining the number of living cells (CFU/mL) of each tube using the agar plate count method. Samples were immediately serially diluted ten-fold in 0.01 M phosphate buffered saline (PBS, Bimed Lublin S.A., Lublin, Poland) at pH 7.0 and 10 μL aliquots were spot-inoculated in duplicate onto MHA plates. Agar plates were incubated at 37 °C overnight before determining the viable count. Two independent experiments were carried out.

[2] = test system: Supercoiled plasmid pUC57 DNA; parameters: method as in PMID 35540189; details: studied previously; cited from earlier work
[3] = test system: S. epidermidis ATCC 12228; assay: Time-kill test; type: cell-based, Staphylococcus epidermidis; details: 1 × MIC
Procedure: as §1

[4] = test system: Staphylococcus epidermidis ATCC 12228; assay: Fluorescence microscopy, Hoechst 33258 / propidium iodide viability; type: cell-based; details: S. epidermidis ATCC 12228; MIC concentration, 24 h
Procedure: (§2) Staphylococcus aureus ATCC 29213 and Staphylococcus epidermidis ATCC 12228 strains were treated with tested compounds 2a–2d and 3a–3d at a concentration 1 × MIC for 24h, while untreated cells were used as a growth control. After incubation, the cells were harvested and a suspension of 1 × 10^5 cells/mL in PBS was prepared. Following this, 1 µl of the fluorescent dyes Hoechst 33258 and propidium iodide (15 µg/mL each) (Sigma, St. Louis, MO, USA) were added. The obtained mixture was incubated in the dark at room temperature for 15–20 min. After incubation, the cell suspensions, placed on glass slides, were analyzed under an Olympus IX 70 fluorescence microscope (Shinjuku, Tokyo, Japan), using a 360–370 nm UV filter. Photos were taken at 10 × 20 magnification.

[5] = test system: Staphylococcus aureus ATCC 29213; assay: as above; type: cell-based; details: S. aureus ATCC 29213; MIC concentration, 24 h
Procedure: as §2

S. aureus ATCC 29213 [6] = assay: Synergy with oxacillin and vancomycin, partial checkerboard broth microdilution; type: cell-based, Staphylococcus aureus; details: S. aureus ATCC 29213; for FIC (Oxa) / FIC (Van): MIC antibiotic in combination/MIC antibiotic alone; for MIC Oxa in Combination: oxacillin with the complex at ½ MIC (NH4PF6 250 µg/mL); for MIC Van in Combination: vancomycin with the complex at ½ MIC (NH4PF6 250 µg/mL)
[7] = test system: S. epidermidis ATCC 12228; assay: as above; type: cell-based, Staphylococcus epidermidis; details: S. epidermidis ATCC 12228; for FIC (Oxa) / FIC (Van): MIC antibiotic in combination/MIC antibiotic alone; for MIC Oxa in Combination: oxacillin with the complex at ½ MIC (NH4PF6 250 µg/mL); for MIC Van in Combination: vancomycin with the complex at ½ MIC (NH4PF6 250 µg/mL)
[8] = test system: S. epidermidis ATCC 12228; assay: Cell lysis (bacteriolysis, OD600); type: cell-based, Staphylococcus epidermidis; details: 1 × MBC
[9] = test system: WM-115 melanoma cell line; details: cited from earlier work
[10] = read-out: IC50 (cytotoxicity), WM-115 melanoma cell line

CCc1cc(CC)n(C(N)=S)n1.Cc1ccc(C(C)C)cc1.[Cl-].[Cl][Ru+] [Compound 2b]
Time-kill: bacteriostatic or bactericidal (S. aureus ATCC 29213 [1]): bacteriostatic | Nicking of DNA Form I into Form II and III [2]: nick the DNA Form I into Form II and III | Time-kill: bacteriostatic or bactericidal [3]: bacteriostatic | Change in bacterial viability (Hoechst 33258 / PI fluorescence) [4]: Less changes in cell survival | Change in bacterial viability (Hoechst 33258 / PI fluorescence) [5]: Less changes in cell survival | Correlation with Oxa and Van (synergy), in words (S. aureus ATCC 29213 [6]): synergistic effects | FIC (Oxa) (S. aureus ATCC 29213 [6]): 0.5 | FIC (Van) (S. aureus ATCC 29213 [6]): 0.5 | MIC Oxa in Combination (S. aureus ATCC 29213 [6]): 0.125 mg/L | MIC Van in Combination (S. aureus ATCC 29213 [6]): 0.25 mg/L | Correlation with Oxa and Van (synergy), in words [7]: synergistic effect in all tested configurations | FIC (Oxa) [7]: 0.06 | FIC (Van) [7]: 0.03 | MIC Oxa in Combination [7]: 0.015 mg/L | MIC Van in Combination [7]: 0.015 mg/L | Cell lysis, change of OD600 [8]: not found to change OD600 values

Cc1ccc(C(C)C)cc1.NC(=S)n1nc(-c2ccccc2)cc1O.[Cl-].[Cl][Ru+] [Compound 2c]
Time-kill: bacteriostatic or bactericidal (S. aureus ATCC 29213 [1]): bacteriostatic | Time-kill: bacteriostatic or bactericidal [3]: bactericidal | Change in bacterial viability (Hoechst 33258 / PI fluorescence) [4]: greatest changes in bacterial viability | Change in bacterial viability (Hoechst 33258 / PI fluorescence) [5]: greatest changes in bacterial viability | Correlation with Oxa and Van (synergy), in words (S. aureus ATCC 29213 [6]): synergistic effects | FIC (Oxa) (S. aureus ATCC 29213 [6]): 0.5 | FIC (Van) (S. aureus ATCC 29213 [6]): 0.5 | MIC Oxa in Combination (S. aureus ATCC 29213 [6]): 0.125 mg/L | MIC Van in Combination (S. aureus ATCC 29213 [6]): 0.25 mg/L | IC50 [9, 10]: 26.7 µM | FIC (Oxa) [7]: 0.25 | FIC (Van) [7]: 1 | MIC Oxa in Combination [7]: 0.06 mg/L | MIC Van in Combination [7]: 0.5 mg/L | Cell lysis, change of OD600 [8]: quite moderate decrease in OD600

Cc1cc(O)n(C(N)=S)n1.Cc1ccc(C(C)C)cc1.[Cl-].[Cl][Ru+] [Compound 2d]
Nicking of DNA Form I into Form II and III [2]: nick the DNA Form I into Form II and III | Change in bacterial viability (Hoechst 33258 / PI fluorescence) [4]: no significant changes in the viability | Change in bacterial viability (Hoechst 33258 / PI fluorescence) [5]: no significant changes in the viability | FIC (Oxa) (S. aureus ATCC 29213 [6]): 0.5 | FIC (Van) (S. aureus ATCC 29213 [6]): 1 | MIC Oxa in Combination (S. aureus ATCC 29213 [6]): 0.125 mg/L | MIC Van in Combination (S. aureus ATCC 29213 [6]): 0.50 mg/L | IC50 [9, 10]: 7.9 µM | FIC (Oxa) [7]: 0.5 | FIC (Van) [7]: 1 | MIC Oxa in Combination [7]: 0.125 mg/L | MIC Van in Combination [7]: 0.5 mg/L

N.N.[Cl][Pt][Cl] [cisplatin, reference compound]
IC50 [9]: 18.2 µM
